In patent US12419950B2, “Saponin-based vaccine adjuvants” (THE UAB RESEARCH FOUNDATION, priority 2019, dated 2025):
Marks after values point to notes of the source that are not given here.

Key:
[1] = tested on: antibody responses to chicken egg ovalbumin (OVA); assay: Serum IgG, IgG1 and IgG2a anti-OVA response (ELISA) in mice immunized s.c. with OVA plus adjuvant; assay type: in vivo, BALB/c mice; set-up: IgG2a, serum IgG subclass anti-OVA activity at week 6: unit not given here; settings: for IgG1, serum IgG subclass anti-OVA activity at week 6 / IgG2a, serum IgG subclass anti-OVA activity at week 6: OVA 20 μg + adjuvant 100 μg s.c. days 0, 14, 28; for IgG1, serum IgG subclass anti-OVA activity at week 6 / IgG2a, serum IgG subclass anti-OVA activity at week 6 / IgG2a/IgG1, anti-OVA at week 6: mean ± SEM; for IgG2a/IgG1, anti-OVA at week 6: OVA 20 μg + adjuvant 100 μg s.c.; for IgG2a anti-OVA response in words / serum IgG anti-OVA response compared with OVA alone: study of saponins 3-6; for serum IgG anti-OVA response compared with OVA alone: weeks 2, 4, 6
Description: With pure natural saponins 3 and 4, and their derivatives 5 and 6 (FIG. 7) available, their ability to potentiate antibody responses to chicken egg ovalbumin (OVA) was evaluated. The known saponin adjuvant GPI-0100 was used as a positive control. Thus, groups of female BALB/c mice (8-10 weeks of age, six per group) were immunized by the subcutaneous route (s.c.) with OVA (20 μg) alone or with GPI-0100, saponins 3-6 at 100 μg dose on days 0, 14 and 28. Mice were weighed and serum samples were collected prior to each immunization and at 6 weeks after the initial immunization. The levels of serum IgG antibody activity to OVA were determined by enzyme-linked immunosorbent assay (ELISA), as shown in FIGS. 6A-6C, 9A-9C, and Table 1.
Their ability to potentiate antibody responses to chicken egg ovalbumin (OVA) was then evaluated. The known saponin adjuvant GPI-0100 was one of the positive controls. Also used was the recently reported MS derivative VSA-1 (4a) as the other positive control. Its high IgG1/IgG2a production and low toxicity are similar to that of GPI-0100. Thus, groups of female BALB/c mice (8-10 weeks of age, six per group) were immunized by the subcutaneous route (s.c.) with OVA (20 μg) alone or with GPI-0100, or a MS saponin derivative at 100 μg dose on days 0, 14 and 28. Mice were weighed and serum samples were collected prior to each immunization and at 2 weeks following the last immunization. The levels of serum antibody activity to OVA were determined by enzyme-linked immunosorbent assay (ELISA).
BALB/c mice used in this study were from Frederick Cancer Research (Fredrick, MD). To assess the adjuvant activity of the MS saponin-based immune adjuvants, groups of female mice (8-10 weeks of age; 6 mice per group) were immunized by the subcutaneous (s.c.) route with OVA (20 μg) or rHagB (35 μg) alone, or with antigen plus proper adjuvant such as GPI-0100 (100 μg) or a MS adjuvant (100 μg) on days 0, 14 and 28. Prior to each immunization and at two weeks post last immunization, mice were weighed and blood samples were collected from the lateral tail vein by using heparinized capillary pipettes. The serum was obtained after centrifugation and stored at −20° C. until assayed.
The levels of specific serum IgG and IgG subclasses against OVA or rHagB in each group were determined by an enzyme-linked immunosorbent assay (ELISA). Maxisorpmicrotiter plates (NUNC International, Roskilde, DK) were coated with rHagB (1 μg/ml), OVA (0.1 μg/ml), or with optimal amounts of goat anti-mouse IgG, IgG1 or IgG2a in borate buffer saline (BBS; 100 mM NaCl, 50 mM boric acid, 1.2 mM Na2B4O7, pH 8.2) at 4° C. overnight. Plates were blocked with 1% bovine serum albumin (BSA) and 0.02% sodium azide in BBS for 2 h at room temperature. Serial two-fold dilutions of serum samples were added in duplicate to the plates. To generate standard curves, serial dilutions of a mouse immunoglobulin reference serum (MP Biomedicals, Solon, OH) were added to two rows of wells in each plate that had been coated with the appropriate anti-mouse IgG or IgG subclass reagent. After incubation (overnight at 4° C.) and washing of the plates, horseradish peroxidase-conjugated goat anti-mouse IgG or IgG subclass antibody was added to appropriate wells. After 4 h of incubation at room temperature, plates were washed and developed by o-phenylenediamine substrate with hydrogen peroxide. Color development was recorded at 490 nm. The concentrations of antibodies were determined by interpolation on standard curves generated by using the mouse immunoglobulin reference serum and constructed by a computer program based on four-parameter logistic algorithms (Softmax/Molecular Devices Corp., Menlo Park, CA).
Statistical significance in antibody responses was evaluated by t tests (with unpaired, nonparametric and Mann-Whiteny test) using GraphPad Prism 8. Differences were considered significant at a P value<0.05.

serum Ab titers = settings: in vivo; cited from earlier work

| Molecule | IgG1, serum IgG subclass anti-OVA activity at week 6 [1] | IgG2a, serum IgG subclass anti-OVA activity at week 6 [1] | IgG2a/IgG1, anti-OVA at week 6 [1] | IgG2a anti-OVA response in words [1] | serum IgG anti-OVA response compared with OVA alone [1] | boost of serum Ab titers compared to vaccine alone (serum Ab titers) |
| --- | --- | --- | --- | --- | --- | --- |
| CC1OC(OC2C(O)C(C(=O)O)OC(OC3CCC4(C)C(CCC5(C)C4CC=C4C6CC(C)(C)CCC6(C(=O)OC6OC(C)C(O)C(O)C6OC6OC(C)C(OC7OCC(O)C(O)C7O)C(OC7OC(CO)C(O)C(OC8OCC(O)C(O)C8O)C7O)C6O)CCC45C)C3(C)C=O)C2OC2OC(CO)C(O)C(O)C2O)C(O)C(O)C1O (centres unmarked) [compound 3, Momordica saponin I] | 233 ± 74 µg/mL | 0.2 | <0.001** | negligible IgG2a responses | did not show significant difference in IgG responses from the OVA group | – |
| Momordica saponins II [compound 4] | 262 ± 37 µg/mL | 0.1 | <0.001** | negligible IgG2a responses | significant difference in IgG responses from the OVA group at weeks 2 (P<0.01) and 4 (P<0.001) but not at week 6 | – |
| monophosphoryl lipid A [MPL] | – | – | – | – | – | 10-20 fold |
